The target of data set [1] is T1, HCV NS3/4A protease (Hepatitis C virus genotype 1b, UniProt O92972).
T1 construct: HCV NS3/4A protease; purchased AnaSpec, San Jose, Calif., USA lot# Lot 046-047 (screening); lot# Lot 046-079 (mechanism study); catalogue number not given
The experiment in a line: HCV protease inhibition assay (SensoLyte 520 HCV Protease Assay Kit, FRET peptide substrate). Format: biochemical. The conditions noted are these: for IC50: enzyme 0.5 μg/ml, 30 min at room temperature (28° C.), read-out: IC50 against HCV protease (converted). The source says: Since the mycelium of Antrodia cinnamomea was recently reported to be clinically effective for hepatitis patients infected with HCV (Akiba T et al. 2007. Clinical study of Shoshi on Japanese hepatitis patients infected with C type hepatitis virus. The second Taiwan and Japan Symposium on Antrodia cinnamomea, Abst. pp. 82-98), a SensoLyte™ 520 HCV protease assay kit was applied to investigate the HCV-protease inhibitory activity of the isolated antrodins, the metabolites of antrodin C as well as one metabolite analogue. The assay method with a quenched-fluorogenic peptide substrate can be used for measure the activity of inhibitors as well as for continuous recording of the progress of the enzyme reaction.
The mode of inhibition was kinetically analyzed by plotting the enzyme activity at different concentrations of the substrate (10, 50, 100 and 200 times dilution of the substrate stocking solution) with (5 μg/ml, and 10 μg/ml) and without [0 μg/ml (DMSO)] compound 1.
HCV NS3/4A protease (lot# Lot 046-047 for the screening and lot# Lot 046-079 for the mechanism study) and SensoLyte™ 520 HCV Protease Assay Kit *Fluorimetric* (lot# AK 71147-1005) were purchased from AnaSpec, San Jose, Calif., USA. The substrate was a 5-FAM/QXL™520 FRET peptide based on the sequence of Ac-Asp-Glu-Asp(EDANS)-Glu-Glu-Abu-Ψ-[COO]Ala-Ser-Lys(DABCYL)-NH2. The assay was carried out on BD Falcon™ Microtest™384-well 120 μl black assay plates (lot#05391155). Fluorescence was measured by TECAN GENios plate reader at excitation/emission 485/530 nm Chemical compounds. Antrodins A-E (compounds 1-5) were isolated from the mycelium of Antrodia cinnamomea as reported (Nakamura et al., 2004. Five new maleic and succinic acid derivatives from the mycelium of Antrodia comphorata and their cytotoxic effects on LLC tumor cell line. J Nat Prod 67: 46-48). Embelin used as a positive control was isolated in our laboratory in previous work (Hussein et al., 2000, Inhibitory effects of Sudanese medicinal plant extracts on hepatitis C virus (HCV) Protease. Phytother Res 14: 510-516). Compounds 6, 7a and 7b were detected as the metabolites of antrodin C in vivo. Compounds 7a and 7b were un-separable due to the equilibrium of these two compounds through compound 1. It was thus used for the assay as a mixture of compounds 1, 7a and 7b and named 7. Compound 8 was an analogue of another metabolite whose glycine group was supposed to connect to the other carboxyl group in the structure.
Compound 6 was dissolved in H2O and other compounds were dissolved in DMSO for the assay. To each well were added 2 μl of respective compound solution and 8 μl of freshly diluted enzyme (0.5 μg/ml). The reaction was started by adding 10 μl of freshly diluted substrate (100 times dilution of a DMSO stocking solution). After being incubated at room temperature (28° C.) for 30 min, the fluorescence intensities were measured at Ex/Em=485 nm/535 nm. Inhibition percentages were calculated as 100×(Fvehicle−Fsample)/Fvehicle=% inhibition, where F is the fluorescence value of vehicle control or of compound minus the fluorescence of the substrate control.

For data set [2] the following is noted: cited from earlier work.
Data set [3] has as its system Propionicbacterium acnes and lipopolysaccharide treated mice. The conditions noted are these: cited from earlier work.

Results on eight compounds are retold here after patent US8772329B2, “Compounds from mycelium of Antrodia cinnamomea and use thereof” (Simpson Biotech Co., Ltd., priority 2008, dated 2014).

Where only a bound is given, the exact number is not on record here.

T1 sequence (O92972 1013-1207, looked up, natural form): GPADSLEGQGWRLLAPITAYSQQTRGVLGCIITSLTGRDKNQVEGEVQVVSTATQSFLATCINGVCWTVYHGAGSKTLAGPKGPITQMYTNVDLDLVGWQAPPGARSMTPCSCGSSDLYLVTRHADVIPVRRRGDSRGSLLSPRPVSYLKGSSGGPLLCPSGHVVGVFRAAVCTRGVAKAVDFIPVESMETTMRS

A word on the IC50: it is the concentration at which inhibition is half-maximal. On to `CC(C)=CCOc1ccc(/C(C(=O)O)=C(\CC(C)C)C(=O)O)cc1` [Compound 6, (2Z)-2-isobutyl-3-{4-[(3-methylbut-2-en-1-yl)oxy]phenyl}but-2-enedioic acid], for which, in data set [1], the half-inhibitory concentration (IC50) is 19.9 µM.
Turning to `CC(C)=CCOc1ccc(C2=C(CC(C)C)C(=O)OC2=O)cc1` [Compound 1, 3-isobutyl-4-[4-(3-methyl-2-butenyloxy)phenyl]furan-2,5-dione], the “mode of HCV PR inhibition (Lineweaver-Burk plot)” value in data set [1] (compound 1 at 0, 5 and 10 μg/ml, substrate 10, 50, 100 and 200 times dilution) was “competitive”. Moreover, in data set [1], the IC50 is 2.86 µM.
For `CC(C)=CCOc1ccc(C2=C(CC(C)C)C(=O)N(O)C2=O)cc1` [Compound 3, 3-isobutyl-4-[4-(3-methyl-2-butenyloxy)phenyl]-1H-pyrrol-1-ol-2,5-dione], in data set [2] (after absorption), the “detection of parent compound in the body” value is recorded as “could not be detected in the body after absorption”. The absorption entry in data set [2] (gastrointestinal tract) is “quickly absorbed from the gastrointestinal tract”. In addition, in data set [2] (liver), the metabolization result is “rapid and complete metabolization in liver”. In addition, the “in vivo metabolism (metabolites formed)” value in data set [2] (metabolites: compounds 1, 2, 6, 7a, 7b and an analogue of compound 8) is “converted to six metabolites”. The protective activity result in data set [3] is reported as “showed protective activity”. For the same compound, in data set [1], the concentration for half-maximal inhibition (IC50) is 8.8 µM.
For `CC(C)=CCOc1ccc(C2C(=O)N(O)C(=O)C2CC(C)C)cc1` (centres unmarked) [Compound 5, 3R*,4R*-1-hydroxy-3-isobutyl-4-[4-(3-methyl-2-butenyloxy)phenyl]pyrrolidine-2,5-dione], in data set [1], the half-maximal inhibitory concentration (IC50) is 60.6 µM.
The same measure, in the same setting: for `CC(C)=CCOc1ccc(C2=C(CC(C)C)C(=O)NC2=O)cc1` [Compound 2, 3-isobutyl-4-[4-(3-methyl-2-butenyloxy)phenyl]-1H-pyrrol-2,5-dione] the value was above 319 µM.
Same read-out and setting: for `CC(C)=CCOc1ccc(C2C(=O)N(O)C(=O)C2CC(C)C)cc1` (centres unmarked) [Compound 4, 3R*,4S*-1-hydroxy-3-isobutyl-4-[4-(3-methyl-2-butenyloxy)phenyl]pyrrolidine-2,5-dione] the value was 60.3 µM; for `CC(C)=CCOc1ccc(/C(C(=O)NCC(=O)O)=C(\CC(C)C)C(=O)O)cc1` [Compound 8], 148 µM; for `CCCCCCCCCCCC1=C(O)C(=O)C=C(O)C1=O` [Embelin, reference compound], 13.9 µM.
